In BindingDB's records for doi:10.1021/jm00121a004 (Merck Sharp & Dohme Research Laboratories, 1989):

Key:
[1] = Displacement of 125 I-gastrin from gastrin receptor of guinea pig gastric glands
[2] = as above; remark: listed apart in the source
[3] = Displacement of [125 I] CCK-8 from Cholecystokinin type B receptor of guinea pig cerebral cortex

CCOC(=O)CN1C(=O)C(NC(=O)Nc2ccc(Cl)cc2)N=C(c2ccccc2F)c2ccccc21 (centres undefined)
IC50 [1]: 4.1 nM

O=C(Nc1ccc(Cl)cc1)NC1N=C(c2ccccc2F)c2ccccc2NC1=O (centres undefined)
IC50 [2]: 640 nM | IC50 [3]: 300 nM

CN1C(=O)[C@@H](NC(=O)c2ccc(Cl)cc2)N=C(c2ccccc2F)c2ccccc21
IC50 [2]: 2500 nM | IC50 [3]: 2900 nM

CN1C(=O)[C@H](NC(=O)c2ccc(Cl)cc2)N=C(c2ccccc2F)c2ccccc21
IC50 [1]: 7600 nM | IC50 [3]: 11000 nM

CN1C(=O)C(NC(=O)Nc2ccc(Cl)cc2)N=C(c2ccccc2)c2ccccc21 [(R)-1-(4-Chloro-phenyl)-3-(1-methyl-2-oxo-5-phenyl-2,3-dihydro-1H-benzo[e][1,4]diazepin-3-yl)-urea]
IC50 [1]: 22 nM | IC50 [3]: 23 nM
